According to ChEMBL document CHEMBL6078687 (J Med Chem, 2024):

Experiments:
[1] = Inhibition of neuraminidase in Influenza A virus A/Babol/36/2005 H3N2 using MUNANA as substrate incubated for 40 mins by […] based assay
[2] = Inhibition of neuraminidase in Influenza A virus A/Goose/Guangdong/SH7/2013 H5N1 using MUNANA as substrate incubated for 40 mins by […] based assay
Influenza A virus [3] = experiment: microbe, parasite or virus in culture; settings: A/Goose/Guangdong/SH7/2013 H5N1, CEF, 48 h
Influenza A virus [4] = experiment: microbe, parasite or virus in culture; settings: A/Goose/Jiangsu/1306/2014 H5N8, CEF, 48 h
Influenza A virus [5] = experiment: microbe, parasite or virus in culture; settings: A/PR/8/34 H1N1, MDCK, 48 h
[6] = Cytotoxicity against MDCK cells incubated for 48 hrs by MTT assay; format: toxicity, cell-based, Canis lupus familiaris; settings: dog
[7] = Cytotoxicity against CEF cells incubated for 48 hrs by CCK8 assay; format: toxicity, cell-based, Gallus gallus; settings: chicken
Influenza A virus [8] = experiment: Antiviral activity against Influenza A virus A/WSN/67/05 H3N2 infected in MDCK cells assessed as inhibition of plaque formation measured after 2 days; settings: A/WSN/67/05 H3N2, MDCK, 48 h
in vitro [9] = settings: human, liver microsomes
in vitro [10] = settings: human, liver microsomes; remark: listed apart in the source
[11] = Metabolic stability in human liver microsomes assessed as compound remaining incubated for 60 mins by LC-MS/MS analysis; format: ADME, Microsome; settings: 1 h
in vitro [12] = settings: human, liver microsomes; remark: listed apart in the source

| Compound | IC50 [1] [µM] | IC50 [2] [µM] | other results |
| --- | --- | --- | --- |
| CCC(CC)O[C@@H]1C=C(C(=O)O)C[C@H](NCc2ccc(-c3cccs3)cc2OC)[C@H]1NC(C)=O | 2.1 | 1.65 |  |
| CCC(CC)O[C@@H]1C=C(C(=O)O)C[C@H](NCc2ccc(-c3ccsc3)cc2OC)[C@H]1NC(C)=O | 8.46 | 1.5 |  |
| CCC(CC)O[C@@H]1C=C(C(=O)O)C[C@H](NCc2ccc(OCc3cccc(B(O)O)c3)cc2F)[C@H]1NC(C)=O | 1.43 | 0.038 | EC50 (Influenza A virus [3]): 6.27 µM; EC50 (Influenza A virus [4]): 6.88 µM; EC50 (Influenza A virus [5]): 0.026 µM; EC50 at 48 h [6]: > 250 µM; CC50 at 48 h [7]: 170 µM; EC50 (Influenza A virus [8]): > 100 µM |
| CCC(CC)O[C@@H]1C=C(C(=O)O)C[C@H](NCc2cccc(C(=O)Nc3ccc(B(O)O)cc3)c2)[C@H]1NC(C)=O | 6.66 | 1.05 |  |
| CCC(CC)O[C@@H]1C=C(C(=O)O)C[C@H](NCc2ccc(OCc3ccc(B(O)O)cc3)c(OC)c2)[C@H]1NC(C)=O | 28.6 | 51.8 |  |
| CCC(CC)O[C@@H]1C=C(C(=O)O)C[C@H](NCc2ccc(OCc3cccc(B(O)O)c3)c(C)c2)[C@H]1NC(C)=O | 11.5 | 8.09 |  |
| CCC(CC)O[C@@H]1C=C(C(=O)O)C[C@H](NCc2ccc(OCc3ccc(B(O)O)cc3)c(Cl)c2)[C@H]1NC(C)=O | 7.17 | 3.95 |  |
| CCC(CC)O[C@@H]1C=C(C(=O)O)C[C@H](NCc2ccc(C(=O)Nc3ccc(B(O)O)cc3)cc2)[C@H]1NC(C)=O | 1.64 | 0.97 |  |
| CCC(CC)O[C@@H]1C=C(C(=O)O)C[C@H](NCc2ccc(OCc3cccc(B(O)O)c3)c(B(O)O)c2)[C@H]1NC(C)=O | 1.78 | 0.075 |  |
| CCC(CC)O[C@@H]1C=C(C(=O)O)C[C@H](NCc2ccc(Oc3ccc(B(O)O)cc3)cc2)[C@H]1NC(C)=O | 1.45 | 0.036 |  |
| CCC(CC)O[C@@H]1C=C(C(=O)O)C[C@H](NCc2ccc(OCc3ccc(B(O)O)cc3)cc2Cl)[C@H]1NC(C)=O | 0.12 | 0.022 | EC50 (Influenza A virus [3]): 3.57 µM; EC50 (Influenza A virus [4]): > 40 µM; EC50 (Influenza A virus [5]): 0.03 µM; EC50 at 48 h [6]: > 250 µM; CC50 at 48 h [7]: > 200 µM; EC50 (Influenza A virus [8]): 4.23 µM |
| CCC(CC)O[C@@H]1C=C(C(=O)O)C[C@H](NCc2c(C)cc(OCc3ccc(B(O)O)cc3)cc2C)[C@H]1NC(C)=O | 0.74 | 0.27 |  |
| CCC(CC)O[C@@H]1C=C(C(=O)O)C[C@H](NCc2ccccc2OCc2ccc(B(O)O)cc2)[C@H]1NC(C)=O | 8.48 | 1.29 |  |
| CCC(CC)O[C@@H]1C=C(C(=O)O)C[C@H](NCc2ccc(OCc3ccc(B(O)O)cc3)cc2F)[C@H]1NC(C)=O | 0.4 | 0.087 | EC50 (Influenza A virus [3]): 1.59 µM; EC50 (Influenza A virus [4]): 3.97 µM; EC50 (Influenza A virus [5]): 0.029 µM; EC50 at 48 h [6]: > 250 µM; CC50 at 48 h [7]: > 500 µM; EC50 (Influenza A virus [8]): 18.5 µM |
| CCC(CC)O[C@@H]1C=C(C(=O)O)C[C@H](NCc2c(C)cc(OCc3cccc(B(O)O)c3)cc2C)[C@H]1NC(C)=O | 0.65 | 0.024 | EC50 (Influenza A virus [3]): 2.54 µM; EC50 (Influenza A virus [4]): 9.12 µM; EC50 (Influenza A virus [5]): 0.014 µM; EC50 at 48 h [6]: > 250 µM; CC50 at 48 h [7]: > 200 µM; EC50 (Influenza A virus [8]): > 100 µM |
| CCC(CC)O[C@@H]1C=C(C(=O)O)C[C@H](NCc2ccc(OCc3ccc(B(O)O)cc3)c(C)c2)[C@H]1NC(C)=O | 16.7 | 8.06 |  |
| CCC(CC)O[C@@H]1C=C(C(=O)O)C[C@H](NCc2cccc(OCc3cccc(B(O)O)c3)c2)[C@H]1NC(C)=O | 4.37 | 4.91 |  |
| CCC(CC)O[C@@H]1C=C(C(=O)O)C[C@H](NCc2cccc(OCc3ccccc3B(O)O)c2)[C@H]1NC(C)=O | 7.88 | 7.02 |  |
| CCC(CC)O[C@@H]1C=C(C(=O)O)C[C@H](NCc2ccc(OCc3cccc(B(O)O)c3)c(F)c2)[C@H]1NC(C)=O | 1.83 | 0.073 |  |
| CCC(CC)O[C@@H]1C=C(C(=O)O)C[C@H](NCc2ccc(Oc3cccc(B(O)O)c3)cc2)[C@H]1NC(C)=O | 0.76 | 0.14 |  |
| CCC(CC)O[C@@H]1C=C(C(=O)O)C[C@H](NCc2cc(C)c(OCc3cccc(B(O)O)c3)c(C)c2)[C@H]1NC(C)=O | 8.79 | 32.3 |  |

| Compound | IC50 [1] [µM] | IC50 [2] [µM] | other results |
| --- | --- | --- | --- |
| CCC(CC)O[C@@H]1C=C(C(=O)O)C[C@H](NCc2ccc(OCc3cccc(B(O)O)c3)c(Cl)c2)[C@H]1NC(C)=O | 6.66 | 2.78 |  |
| CCC(CC)O[C@@H]1C=C(C(=O)O)C[C@H](NCc2ccc(OCc3ccc(B(O)O)cc3)cc2C)[C@H]1NC(C)=O | 0.11 | 0.074 | EC50 (Influenza A virus [3]): 6.39 µM; EC50 (Influenza A virus [4]): 3.55 µM; EC50 (Influenza A virus [5]): 0.011 µM; EC50 at 48 h [6]: > 250 µM; CC50 at 48 h [7]: > 200 µM; EC50 (Influenza A virus [8]): 10.6 µM |
| CCC(CC)O[C@@H]1C=C(C(=O)O)C[C@H](NCc2ccc(OCc3ccc(B(O)O)cc3)cc2OC)[C@H]1NC(C)=O | 0.51 | 1.75 |  |
| CCC(CC)O[C@@H]1C=C(C(=O)O)C[C@H](NCc2ccccc2OCc2cccc(B(O)O)c2)[C@H]1NC(C)=O | 5.08 | 1.48 |  |
| CCC(CC)O[C@@H]1C=C(C(=O)O)C[C@H](NCc2ccc(OCc3cccc(B(O)O)c3)c(OC)c2)[C@H]1NC(C)=O | 23.7 | 43.5 |  |
| CCC(CC)O[C@@H]1C=C(C(=O)O)C[C@H](NCc2ccc(C(=O)Nc3cccc(B(O)O)c3)cc2)[C@H]1NC(C)=O | 17.1 | 1.17 |  |
| CCC(CC)O[C@@H]1C=C(C(=O)O)C[C@H](NCc2ccc(OCc3ccc(B(O)O)cc3)cc2Br)[C@H]1NC(C)=O | 0.34 | 0.071 |  |
| CCC(CC)O[C@@H]1C=C(C(=O)O)C[C@H](NCc2cc(C)c(OCc3ccc(B(O)O)cc3)c(C)c2)[C@H]1NC(C)=O | 41.8 | 19 |  |
| CCC(CC)O[C@@H]1C=C(C(=O)O)C[C@H](NCc2ccc(OCc3ccc(B(O)O)cc3)c(Br)c2)[C@H]1NC(C)=O | 17.1 | 933 |  |
| CCC(CC)O[C@@H]1C=C(C(=O)O)C[C@H](NCc2ccc(OCc3cccc(B(O)O)c3)cc2Br)[C@H]1NC(C)=O | 0.47 | 0.081 |  |
| CCC(CC)O[C@@H]1C=C(C(=O)O)C[C@H](NCc2ccc(OCc3ccc(B(O)O)cc3)c(F)c2)[C@H]1NC(C)=O | 0.65 | 0.1 |  |
| CCC(CC)O[C@@H]1C=C(C(=O)O)C[C@H](NCc2ccc(OCc3cccc(B(O)O)c3)cc2OC)[C@H]1NC(C)=O | 0.95 | 0.79 |  |
| CCC(CC)O[C@@H]1C=C(C(=O)O)C[C@H](NCc2cccc(OCc3ccc(B(O)O)cc3)c2)[C@H]1NC(C)=O | 3.31 | 1.16 |  |
| CCC(CC)O[C@@H]1C=C(C(=O)O)C[C@H](NCc2cccc(C(=O)Nc3cccc(B(O)O)c3)c2)[C@H]1NC(C)=O | 0.23 | 0.41 |  |
| CCC(CC)O[C@@H]1C=C(C(=O)O)C[C@H](NCc2ccc(OCc3cccc(B(O)O)c3)c(Br)c2)[C@H]1NC(C)=O | 14.1 | 6.93 |  |
| O=C(O)Cc1ccccc1Nc1c(Cl)cccc1Cl [DICLOFENAC] |  |  | CLint scaled at 2 h (in vitro [9]): 200 mL/min/kg; microsomal CLint at 2 h (in vitro [10]): 222 µL/min/mg |
| CCC(CC)O[C@@H]1C=C(C(=O)O)C[C@H](N)[C@H]1NC(C)=O [OSELTAMIVIR CARBOXYLATE] | 0.009 | 0.061 | EC50 (Influenza A virus [3]): 1.79 µM; EC50 (Influenza A virus [4]): 8.64 µM; Stability [11]: 114.6%; CLint scaled at 2 h (in vitro [9]): 11.8 mL/min/kg; microsomal CLint at 2 h (in vitro [10]): 13.1 µL/min/mg; EC50 (Influenza A virus [5]): 0.056 µM; EC50 at 48 h [6]: > 250 µM; CC50 at 48 h [7]: > 200 µM; EC50 (Influenza A virus [8]): 0.75 µM |
| CC(C)NCC(O)COc1cccc2ccccc12 (stereo not drawn) [PROPRANOLOL] |  |  | remaining at 2 h (in vitro [12]): 0.5% |
| C[C@]12CC[C@H]3[C@@H](CCC4=CC(=O)CC[C@@]43C)[C@@H]1CC[C@@H]2O [TESTOSTERONE] |  |  | remaining at 2 h (in vitro [12]): 4.1% |
| CC(=O)N[C@H]1[C@H]([C@H](O)[C@H](O)CO)OC(C(=O)O)=C[C@@H]1NC(=N)N [ZANAMIVIR] | 0.038 |  |  |
